Activity calls are given as the source filed them.
Legend:
[1] = test system: Escherichia coli; assay: microbe, parasite or virus in culture
[2] = biological target: T1, Replicative DNA helicase DnaB (Mycobacterium tuberculosis, UniProt P9WMR3); assay: DnaB intein splicing inhibitors, dose response, biochemical, cell-free fluorescence (AID 449749); type: functional
T1 sequence (P9WMR3 whole entry): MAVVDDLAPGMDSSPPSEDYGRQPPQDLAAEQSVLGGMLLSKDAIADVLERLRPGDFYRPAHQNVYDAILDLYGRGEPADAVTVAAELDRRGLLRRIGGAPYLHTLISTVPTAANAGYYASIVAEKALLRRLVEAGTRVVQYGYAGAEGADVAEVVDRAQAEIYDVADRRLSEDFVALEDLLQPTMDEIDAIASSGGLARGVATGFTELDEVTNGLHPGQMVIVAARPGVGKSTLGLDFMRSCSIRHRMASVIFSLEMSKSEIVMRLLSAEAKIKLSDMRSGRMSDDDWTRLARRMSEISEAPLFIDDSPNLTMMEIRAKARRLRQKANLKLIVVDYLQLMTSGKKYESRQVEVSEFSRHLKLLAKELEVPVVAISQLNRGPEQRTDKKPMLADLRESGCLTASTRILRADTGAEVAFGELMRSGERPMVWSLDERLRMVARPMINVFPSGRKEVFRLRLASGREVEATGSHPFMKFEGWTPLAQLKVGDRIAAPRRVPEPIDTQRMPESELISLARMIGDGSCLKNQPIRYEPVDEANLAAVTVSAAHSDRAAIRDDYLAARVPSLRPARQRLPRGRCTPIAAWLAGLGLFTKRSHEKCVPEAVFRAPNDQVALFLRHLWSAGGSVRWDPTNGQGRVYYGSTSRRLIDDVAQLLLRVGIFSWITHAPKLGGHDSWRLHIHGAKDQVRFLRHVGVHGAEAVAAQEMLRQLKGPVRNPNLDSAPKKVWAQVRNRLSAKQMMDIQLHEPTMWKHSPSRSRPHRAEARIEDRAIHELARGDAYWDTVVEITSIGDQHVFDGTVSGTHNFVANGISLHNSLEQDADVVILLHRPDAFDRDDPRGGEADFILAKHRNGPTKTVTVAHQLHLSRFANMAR

[3] = biological target: T2, Protein RecA (Mycobacterium tuberculosis, UniProt P9WHJ3); assay: Fluorescence Cell-Free Homogeneous Dose Retest to Identify Inhibitors of RecA-Intein Splicing Activity. [Related pubchem assays (depositor defined):AID2097, AID2223, AID489010, AID492950]; type: functional
T2 sequence (P9WHJ3 whole entry): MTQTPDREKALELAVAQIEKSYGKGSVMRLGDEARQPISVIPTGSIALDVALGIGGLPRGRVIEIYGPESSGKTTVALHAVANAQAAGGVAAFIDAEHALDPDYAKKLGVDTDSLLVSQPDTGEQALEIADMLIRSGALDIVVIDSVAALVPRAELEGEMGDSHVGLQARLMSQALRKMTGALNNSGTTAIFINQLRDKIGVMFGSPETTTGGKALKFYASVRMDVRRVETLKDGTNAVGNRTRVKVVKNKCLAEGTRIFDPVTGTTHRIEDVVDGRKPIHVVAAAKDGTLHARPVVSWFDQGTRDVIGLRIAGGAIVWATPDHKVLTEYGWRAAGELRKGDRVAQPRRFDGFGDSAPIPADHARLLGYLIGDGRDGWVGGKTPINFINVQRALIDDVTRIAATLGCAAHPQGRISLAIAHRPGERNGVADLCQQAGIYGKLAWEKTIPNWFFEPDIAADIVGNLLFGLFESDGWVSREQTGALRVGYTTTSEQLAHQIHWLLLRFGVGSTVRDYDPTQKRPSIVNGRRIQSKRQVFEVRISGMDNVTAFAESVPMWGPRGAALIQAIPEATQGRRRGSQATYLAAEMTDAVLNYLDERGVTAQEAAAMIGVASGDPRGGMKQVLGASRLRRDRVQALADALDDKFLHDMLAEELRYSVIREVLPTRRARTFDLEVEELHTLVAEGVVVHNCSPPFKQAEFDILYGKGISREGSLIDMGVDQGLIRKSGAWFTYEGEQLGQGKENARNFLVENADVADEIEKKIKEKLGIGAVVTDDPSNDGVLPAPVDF

[4] = A cytotoxicity screen of small molecule inhibitors of the PhoP region in Salmonella typhi identified in the primary screen. [Related pubchem assays: 1850, 1864, 1985 ]; type: functional
[5] = biological target: T3, Short transient receptor potential channel 4 (Mus musculus, UniProt Q9QUQ5); assay: mouse TRPC4 channel activators, dose response, cell-based, HEK293 TRPC4/mu-opioid, Fluo-4 calcium (AID 434937); type: functional
T3 sequence (Q9QUQ5 whole entry): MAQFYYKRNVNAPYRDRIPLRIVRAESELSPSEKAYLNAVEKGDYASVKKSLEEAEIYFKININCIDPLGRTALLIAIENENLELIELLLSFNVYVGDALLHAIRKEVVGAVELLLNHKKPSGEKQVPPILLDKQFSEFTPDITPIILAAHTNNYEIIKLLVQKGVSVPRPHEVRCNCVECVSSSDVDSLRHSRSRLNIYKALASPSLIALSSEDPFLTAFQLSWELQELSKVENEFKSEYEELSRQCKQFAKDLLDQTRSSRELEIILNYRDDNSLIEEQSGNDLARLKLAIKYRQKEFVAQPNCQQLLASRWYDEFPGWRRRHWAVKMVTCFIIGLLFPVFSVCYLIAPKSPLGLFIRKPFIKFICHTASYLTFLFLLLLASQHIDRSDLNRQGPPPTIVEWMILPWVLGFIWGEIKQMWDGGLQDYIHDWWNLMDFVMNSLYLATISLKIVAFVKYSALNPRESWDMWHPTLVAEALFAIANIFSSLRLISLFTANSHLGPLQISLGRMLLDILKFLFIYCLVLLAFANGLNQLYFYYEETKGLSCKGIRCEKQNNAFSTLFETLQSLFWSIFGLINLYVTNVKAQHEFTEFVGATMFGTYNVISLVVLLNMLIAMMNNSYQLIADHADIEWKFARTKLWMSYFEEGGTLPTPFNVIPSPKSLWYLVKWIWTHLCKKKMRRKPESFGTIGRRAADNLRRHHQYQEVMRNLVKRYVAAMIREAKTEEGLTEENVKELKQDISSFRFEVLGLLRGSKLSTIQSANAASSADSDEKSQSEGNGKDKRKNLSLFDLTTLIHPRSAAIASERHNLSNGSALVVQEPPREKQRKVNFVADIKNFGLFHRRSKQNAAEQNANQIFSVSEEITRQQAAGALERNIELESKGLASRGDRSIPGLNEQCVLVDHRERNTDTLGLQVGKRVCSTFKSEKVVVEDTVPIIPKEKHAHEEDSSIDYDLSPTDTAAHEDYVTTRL

[6] = biological target: T4, DNA repair and recombination protein RAD54-like (Homo sapiens, UniProt Q92698); assay: inhibitors of human RAD54 branch migration, confirmation, biochemical, fluorescence, cherry-picked samples, dose series (AID 651657); type: functional
T4 sequence (Q92698 whole entry): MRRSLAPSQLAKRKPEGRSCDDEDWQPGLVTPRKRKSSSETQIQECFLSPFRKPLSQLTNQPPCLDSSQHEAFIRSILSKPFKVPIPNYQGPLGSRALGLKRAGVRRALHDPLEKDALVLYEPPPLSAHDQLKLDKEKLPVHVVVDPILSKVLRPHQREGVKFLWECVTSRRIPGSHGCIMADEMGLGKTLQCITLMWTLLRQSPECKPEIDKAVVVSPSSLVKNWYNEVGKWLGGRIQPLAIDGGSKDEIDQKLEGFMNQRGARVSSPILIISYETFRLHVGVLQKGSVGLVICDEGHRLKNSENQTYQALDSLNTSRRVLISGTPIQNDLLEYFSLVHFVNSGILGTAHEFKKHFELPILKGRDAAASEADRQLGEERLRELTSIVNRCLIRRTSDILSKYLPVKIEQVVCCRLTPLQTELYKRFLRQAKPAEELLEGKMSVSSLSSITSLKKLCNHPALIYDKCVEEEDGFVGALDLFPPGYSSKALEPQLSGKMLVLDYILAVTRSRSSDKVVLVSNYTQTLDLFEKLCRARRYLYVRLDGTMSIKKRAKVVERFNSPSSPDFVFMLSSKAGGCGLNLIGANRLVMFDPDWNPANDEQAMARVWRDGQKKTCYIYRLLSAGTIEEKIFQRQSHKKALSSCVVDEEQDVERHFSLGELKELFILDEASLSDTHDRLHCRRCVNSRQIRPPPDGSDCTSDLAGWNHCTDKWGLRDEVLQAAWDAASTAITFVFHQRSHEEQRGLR

[7] = Fluorescence-based cell-based high throughput dose response assay for inhibitors of the interaction of nucleotide-binding oligomerization domain containing 2 (NOD2) and the receptor-interacting serine-threonine kinase 2 (RIPK2).; type: functional, Homo sapiens
[8] = biological target: Heat shock protein HSP 90-alpha (Homo sapiens, UniProt P07900); type: functional, organism-based
[9] = Luminescence Cell-Based Dose Retest to Confirm Inhibitors of Cancer Stem Cells. [Related pubchem assays (depositor defined):AID2717, AID2721]; type: functional; conditions: Homo sapiens
[10] = HEK293 cell cytotoxicity, dose response, cytotoxicity control, plate reader, cherry-picked samples (AID 743446); type: functional, cell-based
[11] = LGR2 antagonists, dose response, cell-based, HEK293, CRE-luciferase reporter, cherry pick, set 2 (AID 743343); type: functional;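 also: transfected cells were stimulated with diluted bursicon conditioned medium after compound addition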
[12] = A Cell Based Secondary Assay To Explore Cytotoxicity of Compounds that Sensitize Mycobacterium Tuberculosis to Beta-Lactam Antibiotics.; type: functional
[13] = A549 cell cytotoxicity, dose response, cytotoxicity control, plate reader, cherry-pick, antagonist series (AID 743412); type: functional, cell-based
[14] = MC4R antagonists, dose response, counter-screen for LGR2 antagonist project, cell-based, plate reader, cherry pick (AID 743444); type: functional;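 also: transfected HEK 293 cells stimulated with alpha-MSH peptide; potency of inhibitors of the alpha-MSH evoked signal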
[15] = HepG2 cell cytotoxicity, dose response, cytotoxicity control, plate reader, cherry-pick, antagonist series (AID 743416); type: functional, cell-based
[16] = biological target: T5, DNA repair protein RAD52 homolog (Homo sapiens, UniProt P43351); type: functional, biochemical
T5 sequence (P43351 whole entry): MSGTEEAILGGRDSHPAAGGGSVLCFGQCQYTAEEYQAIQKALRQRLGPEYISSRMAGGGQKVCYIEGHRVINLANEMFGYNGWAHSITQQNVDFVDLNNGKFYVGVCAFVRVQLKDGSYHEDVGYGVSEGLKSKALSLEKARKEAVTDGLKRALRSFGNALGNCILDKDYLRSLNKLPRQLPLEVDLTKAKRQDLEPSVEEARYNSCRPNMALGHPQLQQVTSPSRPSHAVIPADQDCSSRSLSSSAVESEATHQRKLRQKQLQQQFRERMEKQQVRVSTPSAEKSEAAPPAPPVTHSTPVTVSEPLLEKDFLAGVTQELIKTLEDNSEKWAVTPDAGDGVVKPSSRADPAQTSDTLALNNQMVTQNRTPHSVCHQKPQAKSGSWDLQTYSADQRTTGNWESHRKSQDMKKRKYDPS

[17] = biological target: Cytochrome P450 2C19 (Homo sapiens, UniProt P33261); assay: Cytochrome panel assay with activity outcomes. Panel member name: p450-cyp2c19 Compounds with AC50 equal or less than 10 uM are considered active; type: functional; conditions: read-out: AC50
Chain of Cytochrome P450 2C19 (P33261 whole entry): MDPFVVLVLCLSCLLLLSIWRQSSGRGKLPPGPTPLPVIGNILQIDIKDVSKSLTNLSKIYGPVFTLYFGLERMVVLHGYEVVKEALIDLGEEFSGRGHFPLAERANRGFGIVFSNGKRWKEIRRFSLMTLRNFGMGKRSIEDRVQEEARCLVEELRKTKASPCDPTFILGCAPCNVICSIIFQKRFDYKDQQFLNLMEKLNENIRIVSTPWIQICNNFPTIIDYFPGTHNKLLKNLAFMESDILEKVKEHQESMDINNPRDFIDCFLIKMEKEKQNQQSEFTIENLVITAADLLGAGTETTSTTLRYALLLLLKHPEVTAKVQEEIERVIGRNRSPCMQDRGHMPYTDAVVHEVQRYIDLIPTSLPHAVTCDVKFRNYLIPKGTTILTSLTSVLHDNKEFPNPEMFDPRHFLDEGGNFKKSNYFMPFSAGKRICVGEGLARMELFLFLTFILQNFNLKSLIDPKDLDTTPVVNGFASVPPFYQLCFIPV

COc1ccccc1-n1nc(C(=O)Nc2ccc3c(c2)OCO3)c2ccccc2c1=O
AC50 [1]: 74.7 µM (active)

CC(=O)NCCn1c(SCc2ccccc2C)nc2ccccc2c1=O
AC50 [2]: 28.4 µM (active)
EC50 [3]: 83.2 µM (active)
EC50 [4]: > 50 µM (active)

COc1ccc(-n2nc(C(=O)NCC(=O)NCCCN3CC(C)CC(C)C3)c3ccccc3c2=O)cc1Cl (stereo unspecified)
EC50 [5]: 1.5 µM (active)

O=C1NC(=O)N(CCc2ccccc2)C(=O)/C1=C/NCc1ccc2c(c1)OCO2
AC50 [1]: 43.4 µM (active)

OC(CNC1CCCc2ccccc21)COc1ccc2ccccc2c1 (stereo unspecified)
EC50 [5]: 5.96 µM (active)

Cc1ccc(NC(=O)c2ccc(Oc3ncccn3)cc2)cc1
AC50 [1]: 37.9 µM (active)

CCN(CC)CCNC(=O)c1cc2c(=O)n(C)c3ccccc3c2n1C
AC50 [6]: 18.3 µM (active)

CC(=O)OC1CC2OC3C=C(C)CCC3(C)C1(C)C21CO1 (stereo unspecified)
IC50 [7]: 49.8 µM (inactive)

CCOc1ncccc1C(=O)N(CC)CC(=O)Nc1ccc(NC(C)=O)cc1
AC50 [1]: 96.8 µM (active)

OC(Cn1cncn1)(c1ccccc1)c1ccccc1
AC50 [8]: 1.43 µM (active)

CCn1cc(C(=O)NCCCN(C)C)c(=O)c2cc(F)c(N3CCN(C)CC3)cc21
EC50 [4]: > 50 µM (active)

Cn1nnnc1Sc1ncnc2scc(-c3ccc(C(F)(F)F)cc3)c12
AC50 [9]: 2.52 µM (active)
AC50 [10]: 8.08 µM (active)
AC50 [11]: 14.8 µM (active)
CC50 [12]: 6.16 µM (active)
AC50 [13]: 7.67 µM (active)
AC50 [14]: 17.7 µM (active)
AC50 [15]: 8.47 µM (active)

C[C@@H](C(=O)NC1CCCC1)N1C(=O)N2CCc3c([nH]c4ccccc34)[C@@]2(C)C1=O
EC50 [4]: > 50 µM (active)

CCCCN(CC)CCCNC(=O)c1cc2c(-c3ccc(OC)c(OC)c3)nn(C)c2s1
AC50 [16]: 3.21 µM (active)
AC50 [6]: 9.31 µM (active)

NC(=O)CN1CCN(CCN2C(=O)c3cccc4cccc(c34)C2=O)CC1
AC50 [16]: 12.1 µM (active)
AC50 [6]: 13.3 µM (active)

CC1CCCCN1S(=O)(=O)c1ccc(NC(=O)c2ccco2)cc1 (stereo unspecified)
AC50 [1]: 32.1 µM (active)

O=C(O)C1C2C=CC(C2)C1C(=O)N1CCN(C/C=C/c2ccccc2)CC1 (stereo unspecified)
AC50 [17]: 14.1 µM (inconclusive)
EC50 [5]: 5.96 µM (active)

O=C(NC1CCN(Cc2ccccc2)CC1)C12CC3CC(CC(C3)C1)C2
EC50 [5]: 1.5 µM (active)

CC1CC(C)CN(CCCNC(=O)COc2cc(=O)n(C)c3ccccc23)C1 (stereo unspecified)
EC50 [5]: 0.749 µM (active)

Cc1cc(C)c2nc(C)cc(Nc3ccc(C(=O)NCCO)cc3)c2c1
AC50 [6]: 32.6 µM (active)
